Measured values as given in ChEMBL document CHEMBL3885861, “Open TG-GATES”.

Species on record: Rattus norvegicus
Assay: Open TG-GATES - Regimen: Single
Format: toxicity, organism-based, Sprague-Dawley
Design: regimen Single, gender Male, age 6 weeks
Conditions: in vivo, po, 25 mg/kg, route gavage, dose level Low; for APTT / Bas / Eos / Fbg / Hb / Ht / Lym / MCH / MCHC / MCV / Mono / Neu / PT / Plat / RBC / Ret / WBC: tissue Blood; for KIDNEY_L / KIDNEY_R / KIDNEY_TOTAL: tissue Kidney; for LIVER: tissue Liver; for ALP / ALT / AST / BUN / CRE / DBIL / GLC / K / Na / PL / RALB / TBIL / TC / TG / TP / gamma-GTP: tissue Plasma

`CN1C(=O)CN=C(c2ccccc2)c2cc(Cl)ccc21` [DIAZEPAM] was tested, and the TERMINAL_BW (3 h) was 218.9 g, the APTT (3 h) was 16.3 s and the Bas (3 h) was 0%. For the same molecule, the Eos (3 h) was 1.2%, the Fbg (3 h) was 227 mg/dL and the Hb (3 h) was 13.9 g/dL. It also gave a Ht (3 h) of 41.8%, a Lym (3 h) of 76.6% and an MCH (3 h) of 21.8 pg. It also gave an MCHC (3 h) of 33.2%, an MCV (3 h) of 65.8 fL and a Mono (3 h) of 7.8%. For the same molecule, the Neu (3 h) was 14.8%, the PT (3 h) was 12.4 s and the Plat (3 h) was 98.7 x10_4/uL. It also gave an RBC (3 h) of 636.6 x10_4/ul, a Ret (3 h) of 8.7% and a WBC (3 h) of 93.5 x10_2/uL. The KIDNEY_L (3 h) was 1 g, the KIDNEY_R (3 h) was 1 g and the KIDNEY_TOTAL (3 h) was 1.9 g. It also gave an LIVER (3 h) of 10.3 g, an ALP (3 h) of 763.4 IU/L and an ALT (3 h) of 30 IU/L. The AST (3 h) was 57.8 IU/L, the BUN (3 h) was 13.2 mg/dL and the CRE (3 h) was 0.5 mg/dL. For the same molecule, the DBIL (3 h) was 0.018 mg/dL, the GLC (3 h) was 195.4 mg/dL and the K (3 h) was 5.3 meq/L. For the same molecule, the Na (3 h) was 139 meq/L, the PL (3 h) was 150.2 mg/dL and the RALB (3 h) was 3.7 g/dL. For the same molecule, the TBIL (3 h) was 0.4 mg/dL, the TC (3 h) was 83.2 mg/dL and the TG (3 h) was 66.2 mg/dL. The TP (3 h) was 5.5 g/dL, the gamma-GTP (3 h) was 2 IU/L and the TERMINAL_BW (6 h) was 216.1 g. It also gave an APTT (6 h) of 16.3 s, a Bas (6 h) of 0% and an Eos (6 h) of 0.6%. The Fbg (6 h) was 217 mg/dL, the Hb (6 h) was 13.9 g/dL and the Ht (6 h) was 42%. The Lym (6 h) was 79.4%, the MCH (6 h) was 21.6 pg and the MCHC (6 h) was 33%. It also gave an MCV (6 h) of 65.2 fL, a Mono (6 h) of 5.6% and a Neu (6 h) of 14.8%. The PT (6 h) was 12.1 s, the Plat (6 h) was 110.2 x10_4/uL and the RBC (6 h) was 643.4 x10_4/ul. For the same molecule, the Ret (6 h) was 8.1%, the WBC (6 h) was 117.8 x10_2/uL and the KIDNEY_L (6 h) was 0.9 g. The KIDNEY_R (6 h) was 1 g, the KIDNEY_TOTAL (6 h) was 1.9 g and the LIVER (6 h) was 9.8 g. The ALP (6 h) was 989.8 IU/L, the ALT (6 h) was 30.8 IU/L and the AST (6 h) was 64.6 IU/L. For the same molecule, the BUN (6 h) was 12 mg/dL, the CRE (6 h) was 0.5 mg/dL and the DBIL (6 h) was 0.058 mg/dL. The GLC (6 h) was 202.2 mg/dL, the K (6 h) was 5.3 meq/L and the Na (6 h) was 138.6 meq/L. The PL (6 h) was 143.4 mg/dL, the RALB (6 h) was 3.8 g/dL and the TBIL (6 h) was 0.4 mg/dL. The TC (6 h) was 77.2 mg/dL, the TG (6 h) was 67.4 mg/dL and the TP (6 h) was 5.7 g/dL. For the same molecule, the gamma-GTP (6 h) was 1 IU/L, the TERMINAL_BW (9 h) was 212.2 g and the APTT (9 h) was 16.6 s. The Bas (9 h) was 0%, the Eos (9 h) was 0.6% and the Fbg (9 h) was 229.8 mg/dL. It also gave a Hb (9 h) of 13.8 g/dL, a Ht (9 h) of 41.7% and a Lym (9 h) of 78.8%. For the same molecule, the MCH (9 h) was 21.6 pg, the MCHC (9 h) was 33% and the MCV (9 h) was 65.4 fL. It also gave a Mono (9 h) of 6.2%, a Neu (9 h) of 14.4% and a PT (9 h) of 12.2 s. It also gave a Plat (9 h) of 102.9 x10_4/uL, an RBC (9 h) of 638.2 x10_4/ul and a Ret (9 h) of 7.5%. It also gave a WBC (9 h) of 107.6 x10_2/uL, a KIDNEY_L (9 h) of 1 g and a KIDNEY_R (9 h) of 1 g. It also gave a KIDNEY_TOTAL (9 h) of 2 g, an LIVER (9 h) of 9.4 g and an ALP (9 h) of 723.6 IU/L. It also gave an ALT (9 h) of 26 IU/L, an AST (9 h) of 57.2 IU/L and a BUN (9 h) of 12.4 mg/dL. The CRE (9 h) was 0.6 mg/dL, the DBIL (9 h) was 0.044 mg/dL and the GLC (9 h) was 212.6 mg/dL. The K (9 h) was 4.8 meq/L, the Na (9 h) was 139.6 meq/L and the PL (9 h) was 142 mg/dL. It also gave an RALB (9 h) of 3.9 g/dL, a TBIL (9 h) of 0.3 mg/dL and a TC (9 h) of 83.8 mg/dL. For the same molecule, the TG (9 h) was 44.8 mg/dL, the TP (9 h) was 5.7 g/dL and the gamma-GTP (9 h) was 1.6 IU/L. For the same molecule, the TERMINAL_BW (24 h) was 227.7 g, the APTT (24 h) was 16.3 s and the Bas (24 h) was 0%. It also gave an Eos (24 h) of 1%, a Fbg (24 h) of 219.6 mg/dL and a Hb (24 h) of 13.4 g/dL. For the same molecule, the Ht (24 h) was 40.4%, the Lym (24 h) was 81% and the MCH (24 h) was 21.7 pg. It also gave an MCHC (24 h) of 33.1%, an MCV (24 h) of 65.7 fL and a Mono (24 h) of 5.6%. The Neu (24 h) was 12.2%, the PT (24 h) was 12.2 s and the Plat (24 h) was 105.2 x10_4/uL. The RBC (24 h) was 616 x10_4/ul, the Ret (24 h) was 8.5% and the WBC (24 h) was 100.5 x10_2/uL. The KIDNEY_L (24 h) was 1 g, the KIDNEY_R (24 h) was 1.1 g and the KIDNEY_TOTAL (24 h) was 2.1 g. For the same molecule, the LIVER (24 h) was 11.2 g, the ALP (24 h) was 1114.4 IU/L and the ALT (24 h) was 33.8 IU/L. The AST (24 h) was 63 IU/L, the BUN (24 h) was 16.6 mg/dL and the CRE (24 h) was 0.5 mg/dL. The DBIL (24 h) was 0.016 mg/dL, the GLC (24 h) was 185.6 mg/dL and the K (24 h) was 5.1 meq/L. The Na (24 h) was 140 meq/L, the PL (24 h) was 152.8 mg/dL and the RALB (24 h) was 3.7 g/dL. The TBIL (24 h) was 0.3 mg/dL, the TC (24 h) was 82.2 mg/dL and the TG (24 h) was 108.6 mg/dL. For the same molecule, the TP (24 h) was 5.8 g/dL and the gamma-GTP (24 h) was 1.2 IU/L.
